{"source": "ChEMBL document CHEMBL1201861", "about": "“Genomics of Drug Sensitity in Cancer screening data, Wellcome Trust Sanger Institute”", "assay_in_all_cases": "cells", "key": {"DG-75": {"test_system": "DG-75", "type": "functional, cell-based, Homo sapiens", "settings": "Homo sapiens, DG-75", "description": "SANGER: Inhibition of human DG-75 cell growth in a cell viability assay."}, "DMS-153": {"test_system": "DMS-153", "type": "functional, cell-based, Homo sapiens", "settings": "Homo sapiens, DMS-153", "description": "SANGER: Inhibition of human DMS-153 cell growth in a cell viability assay."}, "DMS-273": {"test_system": "DMS-273", "type": "functional, cell-based", "settings": "Homo sapiens", "description": "SANGER: Inhibition of human DMS-273 cell growth in a cell viability assay."}, "EB2": {"test_system": "EB2", "type": "functional, cell-based, Homo sapiens", "settings": "Homo sapiens, EB2", "description": "SANGER: Inhibition of human EB2 cell growth in a cell viability assay."}, "FTC-133": {"test_system": "FTC-133", "type": "functional, cell-based", "settings": "Homo sapiens"}, "G-402": {"test_system": "G-402", "type": "functional, cell-based", "settings": "Homo sapiens", "description": "SANGER: Inhibition of human G-402 cell growth in a cell viability assay."}, "GCT": {"test_system": "GCT", "type": "functional, cell-based", "settings": "Homo sapiens", "description": "SANGER: Inhibition of human GCT cell growth in a cell viability assay."}, "HCC1937": {"test_system": "HCC1937", "type": "functional, cell-based", "settings": "Homo sapiens", "description": "SANGER: Inhibition of human HCC1937 cell growth in a cell viability assay."}, "HCC 2998": {"test_system": "HCC 2998", "type": "functional, cell-based", "settings": "Homo sapiens", "description": "SANGER: Inhibition of human HCC2998 cell growth in a cell viability assay."}, "HCT-116": {"test_system": "HCT-116", "type": "functional, cell-based", "settings": "Homo sapiens", "description": "SANGER: Inhibition of human HCT-116 cell growth in a cell viability assay."}, "HSC-2": {"test_system": "HSC-2", "type": "functional, cell-based", "settings": "Homo sapiens", "description": "SANGER: Inhibition of human HSC-2 cell growth in a cell viability assay."}, "HT-29": {"test_system": "HT-29", "type": "functional, cell-based", "settings": "Homo sapiens", "description": "SANGER: Inhibition of human HT-29 cell growth in a cell viability assay."}, "HuTu80": {"test_system": "HuTu80", "type": "functional, cell-based, Homo sapiens, HUTU-80", "settings": "Homo sapiens, HuTu80", "description": "SANGER: Inhibition of human HUTU-80 cell growth in a cell viability assay."}, "JEG-3": {"test_system": "JEG-3", "type": "functional, cell-based", "settings": "Homo sapiens", "description": "SANGER: Inhibition of human JEG-3 cell growth in a cell viability assay."}, "KMOE-2": {"test_system": "KMOE-2", "type": "functional, cell-based, Homo sapiens", "settings": "Homo sapiens, KMOE-2", "description": "SANGER: Inhibition of human KMOE-2 cell growth in a cell viability assay."}, "KYSE-140": {"test_system": "KYSE-140", "type": "functional, cell-based", "settings": "Homo sapiens", "description": "SANGER: Inhibition of human KYSE-140 cell growth in a cell viability assay."}, "KYSE-150 cell line": {"test_system": "KYSE-150 cell line", "type": "functional, cell-based", "settings": "Homo sapiens", "description": "SANGER: Inhibition of human KYSE-150 cell growth in a cell viability assay."}, "KYSE-510": {"test_system": "KYSE-510", "type": "functional, cell-based", "settings": "Homo sapiens", "description": "SANGER: Inhibition of human KYSE-510 cell growth in a cell viability assay."}, "L-540": {"test_system": "L-540", "type": "functional, cell-based, Homo sapiens", "settings": "Homo sapiens, L-540", "description": "SANGER: Inhibition of human L-540 cell growth in a cell viability assay."}, "LB373-MEL-D": {"test_system": "LB373-MEL-D", "type": "functional, cell-based, Homo sapiens", "settings": "Homo sapiens, LB373-MEL-D", "description": "SANGER: Inhibition of human LB373-MEL-D cell growth in a cell viability assay."}, "LN-405": {"test_system": "LN-405", "type": "functional, cell-based", "settings": "Homo sapiens", "description": "SANGER: Inhibition of human LN-405 cell growth in a cell viability assay."}, "LP-1": {"test_system": "LP-1", "type": "functional, cell-based, Homo sapiens", "settings": "Homo sapiens, LP-1", "description": "SANGER: Inhibition of human LP-1 cell growth in a cell viability assay."}, "LU-165": {"test_system": "LU-165", "type": "functional, cell-based, Homo sapiens", "settings": "Homo sapiens, LU-165", "description": "SANGER: Inhibition of human LU-165 cell growth in a cell viability assay."}, "ME-180": {"test_system": "ME-180", "type": "functional, cell-based", "settings": "Homo sapiens", "description": "SANGER: Inhibition of human ME-180 cell growth in a cell viability assay."}, "MHH-CALL-2": {"test_system": "MHH-CALL-2", "type": "functional, cell-based, Homo sapiens", "settings": "Homo sapiens, MHH-CALL-2", "description": "SANGER: Inhibition of human MHH-CALL-2 cell growth in a cell viability assay."}, "MKN-7": {"test_system": "MKN-7", "type": "functional, cell-based", "settings": "Homo sapiens", "description": "SANGER: Inhibition of human MKN7 cell growth in a cell viability assay."}, "NCI-H1651": {"test_system": "NCI-H1651", "type": "functional, cell-based", "settings": "Homo sapiens", "description": "SANGER: Inhibition of human NCI-H1651 cell growth in a cell viability assay."}, "NCI-H1793": {"test_system": "NCI-H1793", "type": "functional, cell-based", "settings": "Homo sapiens", "description": "SANGER: Inhibition of human NCI-H1793 cell growth in a cell viability assay."}, "NCI-H2030": {"test_system": "NCI-H2030", "type": "functional, cell-based", "settings": "Homo sapiens", "description": "SANGER: Inhibition of human NCI-H2030 cell growth in a cell viability assay."}, "NCI-H2122": {"test_system": "NCI-H2122", "type": "functional, cell-based", "settings": "Homo sapiens", "description": "SANGER: Inhibition of human NCI-H2122 cell growth in a cell viability assay."}, "NCI-H2452": {"test_system": "NCI-H2452", "type": "functional, cell-based", "settings": "Homo sapiens", "description": "SANGER: Inhibition of human NCI-H2452 cell growth in a cell viability assay."}, "NCI-H596": {"test_system": "NCI-H596", "type": "functional, cell-based", "settings": "Homo sapiens", "description": "SANGER: Inhibition of human NCI-H596 cell growth in a cell viability assay."}, "NCI-H661": {"test_system": "NCI-H661", "type": "functional, cell-based", "settings": "Homo sapiens", "description": "SANGER: Inhibition of human NCI-H661 cell growth in a cell viability assay."}, "PA-1": {"test_system": "PA-1", "type": "functional, cell-based", "settings": "Homo sapiens", "description": "SANGER: Inhibition of human PA-1 cell growth in a cell viability assay."}, "SIG-M5": {"test_system": "SIG-M5", "type": "functional, cell-based, Homo sapiens", "settings": "Homo sapiens, SIG-M5", "description": "SANGER: Inhibition of human SIG-M5 cell growth in a cell viability assay."}, "SK-HEP1": {"test_system": "SK-HEP1", "type": "functional, cell-based, SK-HEP-1", "settings": "Homo sapiens", "description": "SANGER: Inhibition of human SK-HEP-1 cell growth in a cell viability assay."}, "SK-MEL-24": {"test_system": "SK-MEL-24", "type": "functional, cell-based", "settings": "Homo sapiens", "description": "SANGER: Inhibition of human SK-MEL-24 cell growth in a cell viability assay."}, "SNU-C1": {"test_system": "SNU-C1", "type": "functional, cell-based, Homo sapiens", "settings": "Homo sapiens, SNU-C1", "description": "SANGER: Inhibition of human SNU-C1 cell growth in a cell viability assay."}, "SR": {"test_system": "SR", "type": "functional, cell-based, Homo sapiens", "settings": "Homo sapiens, SR", "description": "SANGER: Inhibition of human SR cell growth in a cell viability assay."}, "SW13": {"test_system": "SW13", "type": "functional, cell-based", "settings": "Homo sapiens", "description": "SANGER: Inhibition of human SW13 cell growth in a cell viability assay."}, "SW1573": {"test_system": "SW1573", "type": "functional, cell-based", "settings": "Homo sapiens", "description": "SANGER: Inhibition of human SW1573 cell growth in a cell viability assay."}, "SW1783": {"test_system": "SW1783", "type": "functional, cell-based", "settings": "Homo sapiens", "description": "SANGER: Inhibition of human SW1783 cell growth in a cell viability assay."}, "786-0": {"test_system": "786-0", "type": "functional, cell-based", "settings": "Homo sapiens", "description": "SANGER: Inhibition of human 786-0 cell growth in a cell viability assay."}, "A2780": {"test_system": "A2780", "type": "functional, cell-based", "settings": "Homo sapiens", "description": "SANGER: Inhibition of human A2780 cell growth in a cell viability assay."}, "A-375": {"test_system": "A-375", "type": "functional, cell-based", "settings": "Homo sapiens", "description": "SANGER: Inhibition of human A375 cell growth in a cell viability assay."}, "A673": {"test_system": "A673", "type": "functional, cell-based", "settings": "Homo sapiens", "description": "SANGER: Inhibition of human A673 cell growth in a cell viability assay."}, "ABC-1": {"test_system": "ABC-1", "type": "functional, cell-based", "settings": "Homo sapiens", "description": "SANGER: Inhibition of human ABC-1 cell growth in a cell viability assay."}, "BPH-1": {"test_system": "BPH-1", "type": "functional, cell-based", "settings": "Homo sapiens", "description": "SANGER: Inhibition of human BPH-1 cell growth in a cell viability assay."}, "BXPC-3": {"test_system": "BXPC-3", "type": "functional, cell-based", "settings": "Homo sapiens", "description": "SANGER: Inhibition of human BxPC-3 cell growth in a cell viability assay."}, "C-33-A": {"test_system": "C-33-A", "type": "functional, cell-based", "settings": "Homo sapiens", "description": "SANGER: Inhibition of human C-33-A cell growth in a cell viability assay."}, "CA46": {"test_system": "CA46", "type": "functional, cell-based, Homo sapiens", "settings": "Homo sapiens, CA46", "description": "SANGER: Inhibition of human CA46 cell growth in a cell viability assay."}, "CAL-33": {"test_system": "CAL-33", "type": "functional, cell-based", "settings": "Homo sapiens", "description": "SANGER: Inhibition of human CAL-33 cell growth in a cell viability assay."}, "CAL-51": {"test_system": "CAL-51", "type": "functional, cell-based", "settings": "Homo sapiens", "description": "SANGER: Inhibition of human CAL-51 cell growth in a cell viability assay."}, "CAL-54": {"test_system": "CAL-54", "type": "functional, cell-based", "settings": "Homo sapiens", "description": "SANGER: Inhibition of human CAL-54 cell growth in a cell viability assay."}, "CAL-85-1": {"test_system": "CAL-85-1", "type": "functional, cell-based", "settings": "Homo sapiens", "description": "SANGER: Inhibition of human CAL-85-1 cell growth in a cell viability assay."}, "THP-1": {"test_system": "THP-1", "type": "functional, cell-based, Homo sapiens", "settings": "Homo sapiens, THP-1", "description": "SANGER: Inhibition of human THP-1 cell growth in a cell viability assay."}, "UMUC3": {"test_system": "UMUC3", "type": "functional, cell-based", "settings": "Homo sapiens", "description": "SANGER: Inhibition of human UM-UC-3 cell growth in a cell viability assay."}, "VM-CUB-1": {"test_system": "VM-CUB-1", "type": "functional, cell-based", "settings": "Homo sapiens", "description": "SANGER: Inhibition of human VM-CUB-1 cell growth in a cell viability assay."}, "YKG-1": {"test_system": "YKG-1", "type": "functional, cell-based", "settings": "Homo sapiens", "description": "SANGER: Inhibition of human YKG-1 cell growth in a cell viability assay."}, "YT": {"test_system": "YT", "type": "functional, cell-based, Homo sapiens", "settings": "Homo sapiens, YT", "description": "SANGER: Inhibition of human YT cell growth in a cell viability assay."}}, "data": [{"smiles": "C/C(=C\\c1csc(C)n1)[C@@H]1C[C@@H]2O[C@]2(C)CCC[C@H](C)[C@H](O)[C@@H](C)C(=O)C(C)(C)[C@@H](O)CC(=O)O1", "note": "[PATUPILONE]", "values": [{"measurement": "IC50", "setting": "DG-75", "result": "> 32", "unit": "nM"}, {"measurement": "IC50", "setting": "DMS-153", "result": 29.3, "unit": "nM"}, {"measurement": "IC50", "setting": "DMS-273", "result": 1.62, "unit": "nM"}, {"measurement": "IC50", "setting": "EB2", "result": 3.69, "unit": "nM"}, {"measurement": "IC50", "setting": "FTC-133", "result": 30.5, "unit": "nM"}, {"measurement": "IC50", "setting": "G-402", "result": 5.27, "unit": "nM"}, {"measurement": "IC50", "setting": "GCT", "result": 6.61, "unit": "nM"}, {"measurement": "IC50", "setting": "HCC1937", "result": "> 32", "unit": "nM"}, {"measurement": "IC50", "setting": "HCC 2998", "result": 1.05, "unit": "nM"}, {"measurement": "IC50", "setting": "HCT-116", "result": 4.69, "unit": "nM"}, {"measurement": "IC50", "setting": "HSC-2", "result": 0.363, "unit": "nM"}, {"measurement": "IC50", "setting": "HT-29", "result": 0.499, "unit": "nM"}, {"measurement": "IC50", "setting": "HuTu80", "result": 0.328, "unit": "nM"}, {"measurement": "IC50", "setting": "JEG-3", "result": 5.01, "unit": "nM"}, {"measurement": "IC50", "setting": "KMOE-2", "result": "> 32", "unit": "nM"}, {"measurement": "IC50", "setting": "KYSE-140", "result": 1.23, "unit": "nM"}, {"measurement": "IC50", "setting": "KYSE-150 cell line", "result": 0.499, "unit": "nM"}, {"measurement": "IC50", "setting": "KYSE-510", "result": 0.0738, "unit": "nM"}, {"measurement": "IC50", "setting": "L-540", "result": 10.7, "unit": "nM"}, {"measurement": "IC50", "setting": "LB373-MEL-D", "result": 18.1, "unit": "nM"}, {"measurement": "IC50", "setting": "LN-405", "result": "> 32", "unit": "nM"}, {"measurement": "IC50", "setting": "LP-1", "result": "> 32", "unit": "nM"}, {"measurement": "IC50", "setting": "LU-165", "result": "> 32", "unit": "nM"}, {"measurement": "IC50", "setting": "ME-180", "result": 5.74, "unit": "nM"}, {"measurement": "IC50", "setting": "MHH-CALL-2", "result": "> 32", "unit": "nM"}, {"measurement": "IC50", "setting": "MKN-7", "result": "> 32", "unit": "nM"}, {"measurement": "IC50", "setting": "NCI-H1651", "result": 3.71, "unit": "nM"}, {"measurement": "IC50", "setting": "NCI-H1793", "result": 21, "unit": "nM"}, {"measurement": "IC50", "setting": "NCI-H2030", "result": 0.699, "unit": "nM"}, {"measurement": "IC50", "setting": "NCI-H2122", "result": 0.41, "unit": "nM"}, {"measurement": "IC50", "setting": "NCI-H2452", "result": "> 32", "unit": "nM"}, {"measurement": "IC50", "setting": "NCI-H596", "result": 11.6, "unit": "nM"}, {"measurement": "IC50", "setting": "NCI-H661", "result": 30.1, "unit": "nM"}, {"measurement": "IC50", "setting": "PA-1", "result": 0.174, "unit": "nM"}, {"measurement": "IC50", "setting": "SIG-M5", "result": 0.169, "unit": "nM"}, {"measurement": "IC50", "setting": "SK-HEP1", "result": 1.11, "unit": "nM"}, {"measurement": "IC50", "setting": "SK-MEL-24", "result": "> 32", "unit": "nM"}, {"measurement": "IC50", "setting": "SNU-C1", "result": "> 32", "unit": "nM"}, {"measurement": "IC50", "setting": "SR", "result": 3.65, "unit": "nM"}, {"measurement": "IC50", "setting": "SW13", "result": 5.01, "unit": "nM"}, {"measurement": "IC50", "setting": "SW1573", "result": 14.6, "unit": "nM"}, {"measurement": "IC50", "setting": "SW1783", "result": 1.48, "unit": "nM"}, {"measurement": "IC50", "setting": "786-0", "result": 0.11, "unit": "nM"}, {"measurement": "IC50", "setting": "A2780", "result": 2.09, "unit": "nM"}, {"measurement": "IC50", "setting": "A-375", "result": 0.05, "unit": "nM"}, {"measurement": "IC50", "setting": "A673", "result": 2.48, "unit": "nM"}, {"measurement": "IC50", "setting": "ABC-1", "result": 1.68, "unit": "nM"}, {"measurement": "IC50", "setting": "BPH-1", "result": 0.521, "unit": "nM"}, {"measurement": "IC50", "setting": "BXPC-3", "result": 1.74, "unit": "nM"}, {"measurement": "IC50", "setting": "C-33-A", "result": 3.27, "unit": "nM"}, {"measurement": "IC50", "setting": "CA46", "result": 9.61, "unit": "nM"}, {"measurement": "IC50", "setting": "CAL-33", "result": 1.52, "unit": "nM"}, {"measurement": "IC50", "setting": "CAL-51", "result": 1.66, "unit": "nM"}, {"measurement": "IC50", "setting": "CAL-54", "result": "> 32", "unit": "nM"}, {"measurement": "IC50", "setting": "CAL-85-1", "result": 0.662, "unit": "nM"}, {"measurement": "IC50", "setting": "THP-1", "result": 23.5, "unit": "nM"}, {"measurement": "IC50", "setting": "UMUC3", "result": 1.85, "unit": "nM"}, {"measurement": "IC50", "setting": "VM-CUB-1", "result": 3.09, "unit": "nM"}, {"measurement": "IC50", "setting": "YKG-1", "result": 1.24, "unit": "nM"}, {"measurement": "IC50", "setting": "YT", "result": 18.7, "unit": "nM"}]}]}
